Experimental data: paper PMC8317065, “UPLC-MS/MS Method for Analysis of Endocannabinoid and Related Lipid Metabolism in Mouse Mucosal Tissue” (Frontiers in Physiology, 2021)

How the values were obtained:
ABHD6 [1] = target: T1, ABHD6 (Mus musculus, UniProt Q8R2Y0); assay: MAG degradative enzyme activity assay with WWL 70, lung protein isolates; assay type: biochemical; conditions: for MAG metabolism, product recovery (normalized response): lung protein 25 μg, WWL 70 alone
T1 construct: from tissue; host or cells: mouse (C57BL/6J) lung, 800 x g supernatant
T1 sequence (Q8R2Y0 1-336): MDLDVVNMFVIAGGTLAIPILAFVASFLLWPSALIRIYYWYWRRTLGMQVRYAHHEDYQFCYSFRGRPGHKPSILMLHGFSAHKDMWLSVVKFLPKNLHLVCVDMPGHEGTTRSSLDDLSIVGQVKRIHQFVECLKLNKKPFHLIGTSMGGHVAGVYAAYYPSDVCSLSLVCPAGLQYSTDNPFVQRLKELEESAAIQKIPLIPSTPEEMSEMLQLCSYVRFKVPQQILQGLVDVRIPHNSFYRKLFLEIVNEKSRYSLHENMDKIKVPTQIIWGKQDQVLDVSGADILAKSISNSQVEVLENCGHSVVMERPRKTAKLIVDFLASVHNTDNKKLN
Description: (§1) Homogenized samples were centrifuged at 800 × g for 15 m at 4°C. The supernatant was collected in a 2.0 mL centrifuge tube and sonicated twice for 10 s. Samples underwent two sequential freeze thaw cycles using liquid N2. Samples were again centrifuged at 800 × g, 15 min, 4°C and the supernatant was collected. Total protein was then quantified via BCA assay and normalized between all samples. Protein isolations for each assay and each tissue were performed separately.
Substrate solutions were prepared by drying stock 19:2 MAG (50 nmol/reaction) under N2 steam and adding fatty acid free BSA (0.25%) and stock 50 mM Tris–HCl (pH = 8.0). The MGL substrate solution was then sonicated for 60 min while protein samples were prepared. […] MGL substrate solution was added to normalized protein (400 μL; 500 μL final volume) samples and incubated in a water bath at 37°C for 10 min (jejunum protein) or 30 min (lung protein). The reaction was stopped using 1.0 mL of chilled methanol containing the internal standard 17:1 FFA (5 nmol/reaction) and placed on ice. The products of the reaction were extracted via lipid extraction methods (see section “Lipid Extraction for Enzyme Assays”) and quantified via UPLC-MS/MS (see section “Quantitation of MAG Degradative Enzyme Activity Assay Products”).
Lipids were extracted using liquid-liquid extraction with chloroform (2.0 mL) followed by 0.8 mL 0.2-micron ultra-purified water. Samples were centrifuged (1500 × g, 5 min, 4°C) and the lower organic phase was collected. The samples were further purified, as previously described ([Batugedara et al., 2018]), via open-bed silica gel column chromatography which was washed with a 9:1 chloroform:methanol mixture to elute MAGs, FAEs, and FFAs for collection. Eluates were dried under N2 steam (99.998% pure) and resuspended in 0.2 mL of methanol:chloroform (1:1). Products were detected and quantified via UPLC-MS/MS techniques (see section “UPLC-MS/MS Detection of Analytes”).
Data was acquired using equipment described above (see section “UPLC-MS/MS Detection of Analytes”) and eluted by a gradient of water and methanol (containing 0.25% acetic acid, 5 mM ammonium acetate) at a flow rate of 0.4 mL/min and gradient: 90% methanol 0.0–0.1 min, 90–100% methanol 0.1–2.0 min, 100% methanol 2.0–2.1 min, 100–90% methanol 2.1–2.2 min, and 90% methanol 2.2–2.5 min. […] Lipids were quantified using a dilution series detecting deprotonated molecular ions in selected ion reading (SIR) mode (variable amounts of product 19:2 FFA versus fixed amount of internal standard 17:1 FFA). Extracted ion chromatograms for SIR masses were used to quantify analytes: 19:2 FFA (m/z = 293.2) product of MGL enzyme assay and 17:1 FFA (m/z = 267.2) as internal standard. Signal to noise ratio was >10 for all quantitated results.

ABHD6 [2] = system: ABHD6; parameters: method as in Li et al., 2007; conditions: fibroblast cell line; ref Li et al., 2007; read-out: IC50 reported for a fibroblast cell line; cited from earlier work
MGL and ABHD6 = assay: MAG degradative enzyme activity assay with JZL 184 and WWL 70 together, lung protein isolates; assay type: biochemical; conditions: mouse lung
Description: as §1
Substrate solutions were prepared by drying stock 19:2 MAG (50 nmol/reaction) under N2 steam and adding fatty acid free BSA (0.25%) and stock 50 mM Tris–HCl (pH = 8.0). The MGL substrate solution was then sonicated for 60 min while protein samples were prepared. […] MGL substrate solution was added to normalized protein (400 μL; 500 μL final volume) samples and incubated in a water bath at 37°C for 10 min (jejunum protein) or 30 min (lung protein). […] The products of the reaction were extracted via lipid extraction methods (see section “Lipid Extraction for Enzyme Assays”) and quantified via UPLC-MS/MS (see section “Quantitation of MAG Degradative Enzyme Activity Assay Products”).
Lipids were extracted using liquid-liquid extraction with chloroform (2.0 mL) followed by 0.8 mL 0.2-micron ultra-purified water. […] Products were detected and quantified via UPLC-MS/MS techniques (see section “UPLC-MS/MS Detection of Analytes”). […]

FAAH [3] = target: T2, FAAH (Mus musculus, UniProt O08914); assay: FAAH activity assay, UPLC-MS/MS, lung protein isolates; assay type: biochemical; conditions: lung protein 10 μg
T2 construct: from tissue; host or cells: mouse (C57BL/6J) lung, 21,100 x g pellet
T2 sequence (O08914 1-579): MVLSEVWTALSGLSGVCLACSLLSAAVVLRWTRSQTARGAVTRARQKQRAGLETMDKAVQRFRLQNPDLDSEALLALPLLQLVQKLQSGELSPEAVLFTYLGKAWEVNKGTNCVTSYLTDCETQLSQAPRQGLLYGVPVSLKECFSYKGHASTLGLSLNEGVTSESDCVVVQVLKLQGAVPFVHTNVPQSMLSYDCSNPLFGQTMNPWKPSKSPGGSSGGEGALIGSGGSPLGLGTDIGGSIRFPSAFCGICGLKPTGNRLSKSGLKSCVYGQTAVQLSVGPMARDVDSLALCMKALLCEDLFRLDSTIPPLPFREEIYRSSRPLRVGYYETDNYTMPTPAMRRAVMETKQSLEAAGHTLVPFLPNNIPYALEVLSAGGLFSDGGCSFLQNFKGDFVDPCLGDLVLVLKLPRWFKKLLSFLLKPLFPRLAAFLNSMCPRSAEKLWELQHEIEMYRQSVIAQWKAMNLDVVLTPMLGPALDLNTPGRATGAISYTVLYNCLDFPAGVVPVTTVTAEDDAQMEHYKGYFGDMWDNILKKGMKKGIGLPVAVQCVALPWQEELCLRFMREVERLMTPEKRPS
Description: (§2) Homogenized samples were centrifuged at 21,100 × g for 30 min at 4°C. The supernatant was discarded, and the pellets were resuspended in 750 μL of chilled 1x PBS (pH = 7.0). To ensure homogenous solution, lung samples were further homogenized using a sonic dismembranator using 8–10 root mean square (RMS) Watts of output power. Total protein was then quantified via BCA assay and normalized between all samples. Alternative protein isolation methods were required for FAAH isolation due to its subcellular localization to membranes of cytoplasmic organelles ([Gulyas et al., 2004]).
(§3) Substrate solutions were prepared by drying stock [^2H4]-PEA (5 nmol/reaction) under N2 steam and adding fatty acid free BSA (0.25%) and stock 50 mM Tris–HCl (pH = 8.0). The substrate solution was then bath sonicated for 60 min while protein samples were prepared. […] The products of the reaction were extracted via lipid extraction methods (see section “Lipid Extraction for Enzyme Assays”) and quantified via UPLC-MS/MS (see section “Quantitation of FAE Degradative Enzyme Activity”).
(§4) Lipids were extracted using liquid-liquid extraction with chloroform (2.0 mL) followed by 0.8 mL 0.2-micron ultra-purified water. […] Products were detected and quantified via UPLC-MS/MS techniques (see section “UPLC-MS/MS Detection of Analytes”).

FAAH [4] = target: T2, FAAH; assay: FAAH (FAE degradative enzyme) activity assay, UPLC-MS/MS, jejunum epithelium protein isolates; assay type: biochemical; conditions: jejunum epithelium protein 50 μg
Description: as §2, §3, §4

FAAH [5] = system: FAAH; parameters: method as in Piomelli et al., 2006; conditions: rat brain membranes; ref Piomelli et al., 2006; read-out: IC50 reported for rat brain membranes; cited from earlier work
[6] = highest inhibitor concentration of range (1,000 nM)
[7] = lowest inhibitor concentration of range (3 nM)

CN(Cc1cccc(-c2ccncc2)c1)C(=O)Oc1ccc(-c2ccc(C(N)=O)cc2)cc1 [WWL 70]
MAG metabolism, product recovery (normalized response) (ABHD6 [1]; highest concentration of range (10,000 nM)): 33.07 ± 1.72%
MAG metabolism, product recovery (normalized response) (ABHD6 [1]; lowest concentration of range (3 nM)): 87.89 ± 13.69%
IC50 (ABHD6 [1]; mouse lung protein isolates 25 μg, WWL 70 3-10,000 nM alone, inhibition incomplete, read-out: IC50, inhibition of MAG metabolism (ABHD6 activity)): 0.78 µM
blockade of MAG degradation, maximum (ABHD6 [1]; protein isolates from lungs of healthy male mice, concentration-dependent): up to 66%

O=C(Oc1ccc([N+](=O)[O-])cc1)N1CCC(C(O)(c2ccc3c(c2)OCO3)c2ccc3c(c2)OCO3)CC1 [JZL 184]
MAG metabolism (normalized response) (MGL and ABHD6; 10 μM WWL 70 plus JZL 184, highest concentration of range (10,000 nM)): 22.32 ± 2.73%
MAG metabolism (normalized response) (MGL and ABHD6; 10 μM WWL 70 plus JZL 184, lowest concentration of range (3 nM)): 94.25 ± 6.64%

NC(=O)c1cccc(-c2cccc(OC(=O)NC3CCCCC3)c2)c1 [URB597]
FAE metabolism (normalized response) (FAAH [3]; [6]): 4.15 ± 0.46%
FAE metabolism (normalized response) (FAAH [3]; [7]): 90.11 ± 8.58%
FAAH activity (normalized response) (FAAH [4]; [6]): 7.37 ± 0.001%
FAAH activity (normalized response) (FAAH [4]; [7]): 94.95 ± 7.89%
